According to patent publication US9139581B2 (PORTOLA PHARMACEUTICALS, INC., priority 2008, dated 2015):

Biological target: T1, full length active recombinant SYK enzyme (Homo sapiens, UniProt P43405)
T1 construct: full length active recombinant SYK enzyme (Millipore, Calif.); purchased Millipore
Test: Inhibition of Syk tyrosine phosphorylation activity (LANCE TR-FRET)
Format: biochemical
Details: Table 3; 1 nM SYK, 100 μM ATP; read-out: Syk IC50 code
In short: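 The reaction is quenched with buffer holding Eu-anti-phosphotyrosine and streptavidin-APC, and detection runs 1 hr at room temperature. TR-FRET is read and IC50s come from non-linear regression.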

Row | Compound | IC50
1 | O=S1(=O)CCC(Nc2nc(Nc3ccc(N4CCNCC4)cc3)nc3[nH]ccc23)C1 (stereo not drawn) [Example 100B, N2-(4-(piperazin-1-yl)phenyl)-N4-(1,1-dioxy-tetrahydrothiophen-3-yl)-7H-pyrrolo[2,3-d]pyrimidine-2,4-diamine] | > 1000 nM
2 | Nc1nc(Nc2ccc(C(=O)O)cc2)nc2[nH]cc(-c3ccncc3)c12 [Example 102, 4-(4-amino-5-(pyridin-4-yl)-7H-pyrrolo[2,3-d]pyrimidin-2-ylamino)benzoic acid] | > 1000 nM
3 | NC(=O)c1c[nH]c2nc(Nc3ccc4c(c3)CCC(=O)N4)nc(NC3CC3)c12 [Example 108, 4-(cyclopropylamino)-2-(2-oxo-1,2,3,4-tetrahydroquinolin-6-ylamino)-7H-pyrrolo[2,3-d]pyrimidine-5-carboxamide] | > 1000 nM
4 | N#CCC(=O)N1CCC(Nc2nc(Nc3ccc(C(N)=O)cc3)nc3[nH]ccc23)CC1 [Example 109, 4-(4-(1-(2-cyanoacetyl)piperidin-4-ylamino)-7H-pyrrolo[2,3-d]pyrimidin-2-ylamino)benzamide] | > 1000 nM
5 | N#CCC(=O)N1CCCC(Nc2nc(Nc3ccc(C(N)=O)cc3)nc3[nH]ccc23)C1 (stereo not drawn) [Example 110, 4-(4-(1-(2-cyanoacetyl)piperidin-3-ylamino)-7H-pyrrolo[2,3-d]pyrimidin-2-ylamino)benzamide] | > 1000 nM
6 | CN1C(=O)CCc2cc(Nc3nc(N)c4c(-c5ccc(F)cc5)c[nH]c4n3)ccc21 [Example 113, 6-(4-Amino-5-(4-fluorophenyl)-7H-pyrrolo[2,3-d]pyrimidin-2-ylamino)-1-methyl-3,4-dihydroquinolin-2(1H)-one] | > 1000 nM
7 | CC(=O)N1CCN(c2ccc(Nc3nc(N4CCCC(C(N)=O)C4)c4nc[nH]c4n3)cc2)CC1 (stereo not drawn) [Example 118, 1-(2-(4-(4-acetylpiperazin-1-yl)phenylamino)-9H-purin-6-yl)piperidine-3-carboxamide] | 100 to 1000 nM
8 | CCCCOC(=O)CC1CCN(c2nc(Nc3ccc4c(c3)CCC(=O)N4)nc3[nH]ccc23)CC1 [Example 119, Butyl 2-(1-(2-(2-oxo-1,2,3,4-tetrahydroquinolin-6-ylamino)-7H-pyrrolo[2,3-d]pyrimidin-4-yl)piperidin-4-yl)acetate] | > 1000 nM
9 | O=C(O)CC1CCN(c2nc(Nc3ccc4c(c3)CCC(=O)N4)nc3[nH]ccc23)CC1 [Example 120, 2-(1-(2-(2-oxo-1,2,3,4-tetrahydroquinolin-6-ylamino)-7H-pyrrolo[2,3-d]pyrimidin-4-yl)piperidin-4-yl)acetic acid] | > 1000 nM
10 | NC(=O)CC1CCN(c2nc(Nc3ccc4c(c3)CCC(=O)N4)nc3[nH]ccc23)CC1 [Example 121, 2-(1-(2-(2-oxo-1,2,3,4-tetrahydroquinolin-6-ylamino)-7H-pyrrolo[2,3-d]pyrimidin-4-yl)piperidin-4-yl)acetamide] | 100 to 1000 nM
11 | CC(=O)N1CCN(c2ccc(Nc3ncc(F)c(N4CCNCC4)n3)cc2)CC1 [Example 124, 1-(4-(4-(5-fluoro-4-(piperazin-1-yl)pyrimidin-2-ylamino)phenyl)piperazin-1-yl)ethanone] | > 1000 nM
12 | CC(=O)N1CCN(c2ccc(Nc3ncc(F)c(N4CCN(C(N)=O)CC4)n3)cc2)CC1 [Example 125, 4-(2-(4-(4-acetylpiperazin-1-yl)phenylamino)-5-fluoropyrimidin-4-yl)piperazine-1-carboxamide] | > 1000 nM
13 | CC(=O)N1CCN(c2ccc(Nc3ncc(F)c(N4CCC(CC(N)=O)CC4)n3)cc2)CC1 [Example 126, 2-(1-(2-(4-(4-acetylpiperazin-1-yl)phenylamino)-5-fluoropyrimidin-4-yl)piperidin-4-yl)acetamide] | 100 to 1000 nM
14 | CC(=O)N1CCN(c2ccc(Nc3ncc(F)c(N4CCC(NC(=O)OCc5ccccc5)CC4)n3)cc2)CC1 [Example 127, Benzyl 1-(2-(4-(4-acetylpiperazin-1-yl)phenylamino)-5-fluoropyrimidin-4-yl)piperidin-4-ylcarbamate] | > 1000 nM
15 | CC(=O)N1CCN(c2ccc(Nc3ncc(F)c(N4CCC(N)CC4)n3)cc2)CC1 [Example 128, 1-(4-(4-(4-(4-aminopiperidin-1-yl)-5-fluoropyrimidin-2-ylamino)phenyl)piperazin-1-yl)ethanone] | > 1000 nM
16 | CC(=O)N1CCN(c2ccc(Nc3ncc(F)c(N4CCC(NC(N)=O)CC4)n3)cc2)CC1 [Example 129, 1-(1-(2-(4-(4-acetylpiperazin-1-yl)phenylamino)-5-fluoropyrimidin-4-yl)piperidin-4-yl)urea] | > 1000 nM
17 | CC(=O)N1CCN(c2ccc(Nc3ncc(C(N)=O)c(N4CCC(CNC(N)=O)CC4)n3)cc2)CC1 [Example 130, 2-(4-(4-acetylpiperazin-1-yl)phenylamino)-4-(4-(ureidomethyl)piperidin-1-yl)pyrimidine-5-carboxamide] | > 1000 nM
18 | CN(C)CC1CCN(c2nc(Nc3ccc(C(N)=O)cc3)ncc2F)CC1 [Example 133, 4-(4-(4-((dimethylamino)methyl)piperidin-1-yl)-5-fluoropyrimidin-2-ylamino)benzamide] | > 1000 nM
19 | CCOC(=O)CC(N)C1CCN(c2nc(Nc3ccc4c(c3)CCC(=O)N4)ncc2F)CC1 (stereo not drawn) [Example 134, Ethyl 3-amino-3-(1-(5-fluoro-2-(2-oxo-1,2,3,4-tetrahydroquinolin-6-ylamino)pyrimidin-4-yl)piperidin-4-yl)propanoate] | 100 to 1000 nM
20 | COC(=O)C(N)C1CCN(c2nc(Nc3ccc4c(c3)CCC(=O)N4)ncc2F)CC1 (stereo not drawn) [Example 135, Methyl 2-amino-2-(1-(5-fluoro-2-(2-oxo-1,2,3,4-tetrahydroquinolin-6-ylamino)pyrimidin-4-yl)piperidin-4-yl)acetate] | > 1000 nM
21 | CC(=O)N1CCN(c2ccc(Nc3ncc(F)c(N4CCC(NC(=O)CC#N)CC4)n3)cc2)CC1 [Example 136, N-(1-(2-(4-(4-acetylpiperazin-1-yl)phenylamino)-5-fluoropyrimidin-4-yl)piperidin-4-yl)-2-cyanoacetamide] | > 1000 nM
22 | CC(=O)N1CCN(c2ccc(Nc3ncc(F)c(N4CCN(C(=O)CC#N)CC4)n3)cc2)CC1 [Example 137, 3-(4-(2-(4-(4-acetylpiperazin-1-yl)phenylamino)-5-fluoropyrimidin-4-yl)piperazin-1-yl)-3-oxopropanenitrile] | > 1000 nM
23 | NCC1CCN(c2nc(Nc3ccc4c(c3)CCC(=O)N4)ncc2-c2ccncc2)CC1 [Example 138, 6-(4-(4-(aminomethyl)piperidin-1-yl)-5-(pyridin-4-yl)pyrimidin-2-ylamino)-3,4-dihydroquinolin-2(1H)-one] | > 1000 nM

Other lines, results leading:

Row | IC50 | Compound
24 | 10 to 100 nM | NC(=O)c1ccc(Nc2nc(NC3CC3)c3c(-c4ccncc4)c[nH]c3n2)cc1 [Example 101, 4-(4-(cyclopropylamino)-5-(pyridin-4-yl)-7H-pyrrolo[2,3-d]pyrimidin-2-ylamino)benzamide]
25 | 1 to 10 nM | N#Cc1c[nH]c2nc(Nc3ccc4c(c3)CCC(=O)N4)nc(NC3CC3)c12 [Example 103, 4-(cyclopropylamino)-2-(2-oxo-1,2,3,4-tetrahydroquinolin-6-ylamino)-7H-pyrrolo[2,3-d]pyrimidine-5-carbonitrile]
26 | 10 to 100 nM | N#Cc1c[nH]c2nc(Nc3ccc(C(N)=O)cc3)nc(NC3CC3)c12 [Example 104, 4-(5-cyano-4-(cyclopropylamino)-7H-pyrrolo[2,3-d]pyrimidin-2-ylamino)benzamide]
27 | 10 to 100 nM | CC(=O)N(C)c1ccc(Nc2nc(NC3CC3)c3c(C#N)c[nH]c3n2)cc1 [Example 105, N-(4-(5-cyano-4-(cyclopropylamino)-7H-pyrrolo[2,3-d]pyrimidin-2-ylamino)phenyl)-N-methylacetamide]
28 | 1 to 10 nM | N#Cc1c[nH]c2nc(Nc3ccc(S(N)(=O)=O)cc3)nc(NC3CC3)c12 [Example 106, 4-(5-cyano-4-(cyclopropylamino)-7H-pyrrolo[2,3-d]pyrimidin-2-ylamino)benzenesulfonamide]
29 | 10 to 100 nM | CC(=O)N1CCN(c2ccc(Nc3nc(NC4CC4)c4c(C#N)c[nH]c4n3)cc2)CC1 [Example 107, 2-(4-(4-acetylpiperazin-1-yl)phenylamino)-4-(cyclopropylamino)-7H-pyrrolo[2,3-d]pyrimidine-5-carbonitrile]
30 | 100 to 1000 nM | COc1ccc(Nc2nc(Nc3ccc4c(c3)CCC(=O)N4)nc3[nH]cc(C#N)c23)cc1 [Example 111, 4-(4-methoxyphenylamino)-2-(2-oxo-1,2,3,4-tetrahydroquinolin-6-ylamino)-7H-pyrrolo[2,3-d]pyrimidine-5-carbonitrile]
31 | 100 to 1000 nM | CN1C(=O)CCc2cc(Nc3nc(Nc4ccc(F)cc4)c4c(-c5ccncc5)c[nH]c4n3)ccc21 [Example 112, 6-(4-(4-fluorophenylamino)-5-(pyridin-4-yl)-7H-pyrrolo[2,3-d]pyrimidin-2-ylamino)-1-methyl-3,4-dihydroquinolin-2(1H)-one]
32 | 100 to 1000 nM | CN1C(=O)CCc2cc(Nc3nc(NCc4ccccc4)c4c(-c5ccncc5)c[nH]c4n3)ccc21 [Example 114, 6-(4-(benzylamino)-5-(pyridin-4-yl)-7H-pyrrolo[2,3-d]pyrimidin-2-ylamino)-1-methyl-3,4-dihydroquinolin-2(1H)-one]
33 | 100 to 1000 nM | CN1C(=O)CCc2cc(Nc3nc(NCc4ccccc4)c4c(C#N)c[nH]c4n3)ccc21 [Example 115, 4-(Benzylamino)-2-(1-methyl-2-oxo-1,2,3,4-tetrahydroquinolin-6-ylamino)-7H-pyrrolo[2,3-d]pyrimidine-5-carbonitrile]
34 | 10 to 100 nM | CC(=O)N1CCN(c2ccc(Nc3ncc(Cl)c(N4CCC(CN)CC4)n3)cc2)CC1 [Example 122, 1-(4-(4-(4-(4-(aminomethyl)piperidin-1-yl)-5-chloropyrimidin-2-ylamino)phenyl)piperazin-1-yl)ethanone]
35 | 10 to 100 nM | NCC1CCN(c2nc(Nc3ccc(C(=O)O)cc3)ncc2F)CC1 [Example 131, 4-(4-(4-(aminomethyl)piperidin-1-yl)-5-fluoropyrimidin-2-ylamino)benzoic acid]
36 | 10 to 100 nM | NCC1CCN(c2nc(Nc3ccc4c(c3)CCC(=O)N4)ncc2Br)CC1 [Example 132, 6-(4-(4-(aminomethyl)piperidin-1-yl)-5-bromopyrimidin-2-ylamino)-3,4-dihydroquinolin-2(1H)-one]
